# Test results reported in patent US20230102973A1, “Medical Use of Anemoside B4 in the Treatment of Oral Ulcers” (priority 2020, published 2023).
# Legend:
# [1] = tested on: oral ulcer induced by paclitaxel in rats; experiment: Paclitaxel-induced oral ulcer model in rats (food intake, ulcer diameter); type: in vivo, SD rats; settings: intraperitoneal once a day for 5 days
# Protocol: Rats were anesthetized by intraperitoneal injection of 10% chloral hydrate solution. After anesthesia, the oral ulcer model induced by chemotherapeutic drugs was established by injecting 50 μl of 6 mg/ml paclitaxel injection into the right buccal mucosa of rats.
# All animals with successful modeling were randomly divided into model group, (7 rats), anemoside B4 high dose (about 60 mg/kg*2) group (7 rats), and normal group (6 rats).
# 24 h after modeling, in anemoside B4 group, rectal administration was performed, 1 suppository/time, twice a day, for 5 successive days; in dexamethasone group, intraperitoneal administration was performed, once a day, for 5 successive days; and in model group, blank suppository was given.
# (1) General observation: On the day of modeling, rats were fasted but free access to water for 12 hours, while the diet was given quantitatively on the second day after modeling, and the food intake of rats in each cage was measured daily from the third day after modeling (the second day after administration). (2) Measurement of ulcer surface diameter: from the 2nd day after modeling, the diameter of ulcer surface was measured with a vernier caliper and recorded for 7 successive days.
# [2] = tested on: oral ulcer induced by acetic acid in rats; experiment: Acetic acid-induced oral ulcer model in rats (body weight, food intake, ulcer diameter); type: in vivo, SD rats; settings: 0.3 mg/kg intraperitoneal once a day
# Text: Rats were anesthetized by intraperitoneal injection of 10% chloral hydrate solution. After anesthesia, 3 mm×3 mm filter paper impregnated with 100% glacial acetic acid was clung to the right buccal mucosa of rats for 45 s. After cauterization for 45 s, a round or oval white lesion of the buccal mucosa in this area was observed, indicating successful modeling.
# All animals with successful modeling were randomly divided into six groups according to the ulcer area: (1) model group, 14 rats; (2) Xilei powder (15 mg/kg) group, 12 rats; (3) dexamethasone (0.3 mg/kg) group, 13 rats; (4) anemoside B4 high dose (about 60 mg/kg*3, i.e. 14 mg/suppository, one suppository/time, 3 times/day) group, 14 rats; (5) anemoside B4 medium dose (about 30 mg/kg*3, i.e. 7 mg/suppository, one suppository/time, 3 times/day) group, 14 rats; (6) anemoside B4 low dose (about 15 mg/kg*3, i.e. 3.5 mg/suppository, one suppository/time, 3 times/day) group, 14 rats; and 6 rats were included in the normal group.
# 24 h after modeling, drug was administrated for 3 successive days, including: local administration in Xilei powder group, once a day; intraperitoneal injection in dexamethasone group, once a day; rectal administration in anemoside B4 group, 3 times a day, and administration of blank suppository in model group, 3 times a day.
# (1) General observation: daily food intake per cage was measured from the 2nd day after modeling, and animal weight was measured every 2 days. (2) Measurement of ulcer surface diameter: on the 2nd, 4th and 5th day after modeling, the diameter of ulcer surface was measured with a vernier caliper and recorded.
compound,measurement,setting,value
C[C@@H]1C[C@H]2[C@@H]3CCC4=CC(=O)C=C[C@]4(C)[C@@]3(F)[C@@H](O)C[C@]2(C)[C@@]1(O)C(=O)CO [Dexamethasone],Diameter of oral ulcers,[1]; the 2nd day after modeling,3.93 ± 0.48 mm
same,Diameter of oral ulcers,[1]; the 3rd day after modeling,4.00 ± 0.40 mm
same,Food intake/rat,[1]; the 3rd day after modeling,13.78 ± 3.83 g
same,Diameter of oral ulcers,[1]; the 4th day after modeling,3.88 ± 0.58 mm
same,Food intake/rat,[1]; the 4th day after modeling,10.61 ± 2.48 g
same,Diameter of oral ulcers,[1]; the 5th day after modeling,3.50 ± 0.87 mm
same,Food intake/rat,[1]; the 5th day after modeling,13.91 ± 1.92 g
same,Diameter of oral ulcers,[1]; the 6th day after modeling,3.26 ± 0.84 mm
same,Food intake/rat,[1]; the 6th day after modeling,19.84 ± 1.14 g
same,Diameter of oral ulcers,[1]; the 7th day after modeling,2.85 ± 0.81 mm
same,Food intake/rat,[1]; the 7th day after modeling,18.79 ± 0.56 g
same,Body weight,[2]; the 2nd day after modeling,230 + 8.3 g
same,Diameter of oral ulcer,[2]; the 2nd day after modeling,4.64 ± 0.38 mm
same,Food intake (g)/rat,[2]; the 3rd day after modeling,13.4 ± 3.35 g
same,Body weight,[2]; the 4th day after modeling,216 + 9.2 g
same,Diameter of oral ulcer,[2]; the 4th day after modeling,3.16 ± 0.18 mm
same,Food intake (g)/rat,[2]; the 4th day after modeling,8.2 ± 2.39 g
same,Diameter of oral ulcer,[2]; the 5th day after modeling,2.78 ± 0.26 mm
same,Food intake (g)/rat,[2]; the 5th day after modeling,12.1 ± 4.70 g
same,Body weight,[2]; the 6th day after modeling,213 + 13.7 g
